According to patent publication US20110212899A1, “Corneal Neuritogenesis Promoter Containing Pacap and Its Derivative” (priority 2004, published 2011):
Where no end group is shown, it is not given here.

What was measured:
[1] = system: excised rabbit lacrimal gland; test: Promoting effect on protein secretion from an excised lacrimal gland (2) (Test Example 5); assay type: cell-based; conditions: 10^−7 M, incubated 60 minutes; p<0.05
Method: A lacrimal gland was excised from a rabbit and incubated in a solution containing PACAP27 or peptide 24, and changes in the amount of secreted protein were examined as lacrimal gland stimulating activity.
Japanese white rabbits with a body weight of 1.5 to 2.0 kg purchased from Fukusaki Rabbit warren were used. The animals were each put in separate cages placed in a room wherein a temperature of 23±3° C. and a humidity of 55±10% were kept and a light was on for 12 hours per day (lighting at 8:00 and lights-out at 20:00), and raised after arrival until the final day of the test. The animals were given 100 g of solid feed (Labo R Stock, Nosan Corporation) per day, and could freely have tap water.
PACAP27 and peptide 24 were used as test substances. Test substance solutions were prepared as follows. […]
The section sample in a stationary state was incubated in 0.5 mL of a fresh incubation solution at 37° C. for 20 minutes under a mixed gas atmosphere of 95% oxygen and 5% carbon dioxide. After completion of the incubation, the incubation solution was collected, and the protein amount in the solution was determined by using a protein staining reagent (DC Protein Assay Reagent, Bio Rad). […] The incubation solution was collected, and the protein amount in the incubation solution was determined. […]

[2] = system: Human normal corneal epithelial cells; test: Promoting effect on proliferation of cultured corneal epithelial cells (Test Example 8); assay type: cell-based; conditions: final concentration (10^−5 M), cultivation for 8 days; p<0.05
Method: Human normal corneal epithelial cells (Kurabo Industries Ltd., strain No. 4C0466) were used. Peptide 24 and PACAP27 were used as test substances. The test substance was dissolved in distilled water at a concentration 1000 times of the final concentration (10^−5 M), and the concentration was then adjusted to twice the final concentration with a serum-free proliferation medium for human corneal epithelial cells (EpiLife (−), Kurabo Industries Ltd.). After thawing freeze-preserved human normal corneal epithelial cells, the cells were seeded according to a conventional method and cultured for 7 days at 37° C. in 5% CO2. After the cultivation, the cells were harvested by a conventional method, and were suspended in EpiLife (−) at a concentration of 1.0×10^4 cells/mL. […] The number of the cells was counted based on the ability to reduce MTT (3-(4,5-dimethyl-2-thiazolyl)-2,5-diphenyl-2H-tetrazolium bromide) according to the protocol of Cell Counting Kit-8 (Dojindo Laboratories). […] The plate was incubated at 37° C. in 5% CO2 for 2 hours and then, the absorbance was measured at 450 nm using a microplate reader. Average values of absorbance in the control group and each test substance-addition group were calculated, and the values were compared between the control group and each test substance-addition group by a Dunnett's multiple comparison test (one-tailed). […]

“His-Ser-Asp-Ala-Ile-Phe-Thr-Asp-Ser-Tyr-Ser-Arg-Tyr-Arg-Arg-Gln-Leu-Ala-Val-Arg-Arg-Tyr-Leu-Ala-Ala-Val-Leu-Gly-Arg-Arg-NH2 (HSDAIFTDSYSRYRRQLAVRRYLAAVLGRR-NH2) [Peptide 24]” was tested, and the “protein secretion rate of excised lacrimal gland compared with control group” value [1] was “significant increase” and the “cell number (MTT reduction ability) compared with control group” value [2] was “increased”.
